Measured values as given in US5217971A, “Thiazole compounds and pharmaceutical composition comprising the same” (Fujisawa Pharmaceutical Co., Ltd., priority 1989, dated 1993).

How the values were obtained:
thrombin = test: Assay for thrombin activity (S-2238 substrate); type: biochemical; details: concentration 1.0 × 10^-4 M, pH 8.0, 37° C.
Protocol: Thrombin activity was measured using the synthetic peptide substrate (S-2238, Kabivitrum).
After 900 μl of 0.1 M Tris-HCl buffer (pH 8.0), 100 μl of drug solution and 10 μl of 3U/ml thrombin were incubated at 37° C. for 5 min, 2 ml of 100 μM S-2238 was added.
The rate of increase in absorbance at 405 nm due to hydrolysis of S-2238 was measured with a spectrophotometer.
Inhibition (%) of drug was calculated as follows:
Inhibition (%)=(S-B)/A×100
A:Abs/min in the absence of drug
B:Abs/min in the presence of drug

platelet aggregation = test: Platelet aggregation ex vivo (1), arachidonic acid-induced, PRP after oral administration; type: in vivo, male Hartley guinea-pigs; details: guinea-pig, oral 1.0 mg/kg, 6 hours after administration, arachidonic acid final 50 μM
Protocol: Male Hartley guinea-pigs weighing about 300 g were used after 24 hours fasting. Six hours after oral administration of the test compound or vehicle of test compound (control), blood was collected into a tube containing 0.1 vol. of 3.8% sodium citrate and prepared platelet rich plasma (PRP).
To the 250 μl of PRP, 5 μl of arachidonic acid (final 50 μM) was added as an aggregation inducer. Aggregation was measured by using an aggregometer (NKK HEMA-TRACER 1).

stomachs of the rats = test: Effect on stomach of rats; type: in vivo; details: 100 mg/kg, oral
rats = test: Acute toxicity in rats by peroral administration; type: in vivo

## COc1ccc(-c2nc(C(=O)NC(=N)N)sc2-c2ccc(OC)cc2)cc1 [Example 5, 4,5-bis(4-methoxyphenyl)-2-guanidinocarbonylthiazole]
thrombin
  Inhibition (%) of thrombin activity: 92.2%

## COc1ccc(-c2nc(C(=O)N3CCN(C)CC3)sc2-c2ccc(OC)cc2)cc1.Cl [Example 1, 4,5-bis(4-methoxyphenyl)-2-(4methylpiperazin-1-yl)carbonylthiazole hydrochloride]
Platelet aggregation
  Inhibition (%) of platelet aggregation: 100%
Stomachs of the rats
  lesion in stomachs of rats: No lesion was observed
rats
  acute toxicity, deaths at 100 mg/kg: the dead at dose of 100 mg/kg could not be observed
